Results: the NIST ThermoML archive (doi:10.1021/je0301040)

Experiment: xn = mol fraction of the nth substance listed

FC(Cl)(Cl)Cl [trichlorofluoromethane] + FC(F)Cl
Conditions | mass density [kg/m3]
374.97 K, 3116.9 kPa, Liquid, Pycnometric method, x1 = 0.8336 | 1216.83
374.97 K, 14051 kPa, Liquid, Pycnometric method, x1 = 0.8336 | 1279.66
374.97 K, 21566 kPa, Liquid, Pycnometric method, x1 = 0.8336 | 1310.86
374.97 K, 27844 kPa, Liquid, Pycnometric method, x1 = 0.8336 | 1332.88
374.97 K, 35188 kPa, Liquid, Pycnometric method, x1 = 0.8336 | 1355.43
374.97 K, 42212 kPa, Liquid, Pycnometric method, x1 = 0.8336 | 1374.59
374.97 K, 48936 kPa, Liquid, Pycnometric method, x1 = 0.8336 | 1391.15
374.97 K, 56118 kPa, Liquid, Pycnometric method, x1 = 0.8336 | 1407.35
374.97 K, 63201 kPa, Liquid, Pycnometric method, x1 = 0.8336 | 1422.2
374.97 K, 67438 kPa, Liquid, Pycnometric method, x1 = 0.8336 | 1430.6
374.98 K, 99.9 kPa, Fluid (supercritical or subcritical phases), Burnett expansion method, x1 = 0.832 | 4.192
374.98 K, 100.73 kPa, Fluid (supercritical or subcritical phases), Burnett expansion method, x1 = 0.832 | 4.2353
374.98 K, 141.34 kPa, Fluid (supercritical or subcritical phases), Burnett expansion method, x1 = 0.832 | 5.9685
374.98 K, 195.81 kPa, Fluid (supercritical or subcritical phases), Burnett expansion method, x1 = 0.832 | 8.3248
374.98 K, 197.47 kPa, Fluid (supercritical or subcritical phases), Burnett expansion method, x1 = 0.832 | 8.4097
374.98 K, 216.98 kPa, Fluid (supercritical or subcritical phases), Burnett expansion method, x1 = 0.832 | 9.2699
374.98 K, 272.55 kPa, Fluid (supercritical or subcritical phases), Burnett expansion method, x1 = 0.832 | 11.7304
374.98 K, 275.03 kPa, Fluid (supercritical or subcritical phases), Burnett expansion method, x1 = 0.832 | 11.8505
374.98 K, 301.92 kPa, Fluid (supercritical or subcritical phases), Burnett expansion method, x1 = 0.832 | 13.0615
374.98 K, 377.56 kPa, Fluid (supercritical or subcritical phases), Burnett expansion method, x1 = 0.832 | 16.5279
374.98 K, 381 kPa, Fluid (supercritical or subcritical phases), Burnett expansion method, x1 = 0.832 | 16.6977
374.98 K, 417.41 kPa, Fluid (supercritical or subcritical phases), Burnett expansion method, x1 = 0.832 | 18.4053
374.98 K, 518.62 kPa, Fluid (supercritical or subcritical phases), Burnett expansion method, x1 = 0.832 | 23.2877
374.98 K, 523.72 kPa, Fluid (supercritical or subcritical phases), Burnett expansion method, x1 = 0.832 | 23.528
374.98 K, 569 kPa, Gas, isochoric method, x1 = 0.832 | 201.277
374.98 K, 1592.7 kPa, Liquid, Pycnometric method, x1 = 0.8336 | 1204.96
374.98 K, 1802 kPa, Liquid, Pycnometric method, x1 = 0.8336 | 1206.68
374.98 K, 3500.8 kPa, Liquid, Pycnometric method, x1 = 0.8336 | 1219.67
374.98 K, 7519.3 kPa, Liquid, Pycnometric method, x1 = 0.8336 | 1245.72
375.98 K, 3481.1 kPa, Liquid, isochoric method, x1 = 0.832 | 1216.37
375.98 K, 3481.3 kPa, Liquid, isochoric method, x1 = 0.832 | 1216.37
380.97 K, 5662.2 kPa, Liquid, isochoric method, x1 = 0.832 | 1216.02
385.97 K, 7843.6 kPa, Liquid, isochoric method, x1 = 0.832 | 1215.66
385.97 K, 7845.9 kPa, Liquid, isochoric method, x1 = 0.832 | 1215.66
389.97 K, 399.7 kPa, Gas, isochoric method, x1 = 0.832 | 131.569
389.97 K, 864.3 kPa, Gas, isochoric method, x1 = 0.832 | 304.496
399.96 K, 7536.5 kPa, Liquid, Pycnometric method, x1 = 0.8336 | 1168.49
399.96 K, 49152 kPa, Liquid, Pycnometric method, x1 = 0.8336 | 1348.85
399.97 K, 617 kPa, Gas, isochoric method, x1 = 0.832 | 201.042
399.97 K, 3101 kPa, Liquid, Pycnometric method, x1 = 0.8336 | 1123.2
399.97 K, 3459.9 kPa, Liquid, Pycnometric method, x1 = 0.8336 | 1127.62
399.97 K, 3838.5 kPa, Liquid, Pycnometric method, x1 = 0.8336 | 1132.14
399.97 K, 5333.9 kPa, Liquid, Pycnometric method, x1 = 0.8336 | 1148.2
399.97 K, 14526 kPa, Liquid, Pycnometric method, x1 = 0.8336 | 1217.33
399.97 K, 21523 kPa, Liquid, Pycnometric method, x1 = 0.8336 | 1253.75
399.97 K, 28491 kPa, Liquid, Pycnometric method, x1 = 0.8336 | 1283.14
399.97 K, 35354 kPa, Liquid, Pycnometric method, x1 = 0.8336 | 1307.71
399.97 K, 56281 kPa, Liquid, Pycnometric method, x1 = 0.8336 | 1366.92
399.97 K, 63214 kPa, Liquid, Pycnometric method, x1 = 0.8336 | 1383.07
399.98 K, 2379 kPa, Liquid, Pycnometric method, x1 = 0.8336 | 1111.44
399.98 K, 2438.9 kPa, Liquid, Pycnometric method, x1 = 0.8336 | 1114.58
399.98 K, 2791.2 kPa, Liquid, Pycnometric method, x1 = 0.8336 | 1119.29
399.98 K, 41888 kPa, Liquid, Pycnometric method, x1 = 0.8336 | 1328.37
404.97 K, 909.7 kPa, Gas, isochoric method, x1 = 0.832 | 304.283
404.97 K, 1209.7 kPa, Gas, isochoric method, x1 = 0.832 | 426.452
409.97 K, 5121.7 kPa, Liquid, isochoric method, x1 = 0.832 | 1111.12
414.97 K, 1254.6 kPa, Gas, isochoric method, x1 = 0.832 | 426.252
414.97 K, 1558.2 kPa, Gas, isochoric method, x1 = 0.832 | 556.482
415.97 K, 7015.9 kPa, Liquid, isochoric method, x1 = 0.832 | 1110.75
419.96 K, 1587.9 kPa, Gas, isochoric method, x1 = 0.832 | 556.352
421.97 K, 8915.8 kPa, Liquid, isochoric method, x1 = 0.832 | 1110.38
424.96 K, 76.05 kPa, Fluid (supercritical or subcritical phases), Burnett expansion method, x1 = 0.832 | 2.7936
424.96 K, 106.8 kPa, Fluid (supercritical or subcritical phases), Burnett expansion method, x1 = 0.832 | 3.939
424.96 K, 136.17 kPa, Fluid (supercritical or subcritical phases), Burnett expansion method, x1 = 0.832 | 5.049
424.96 K, 191.33 kPa, Fluid (supercritical or subcritical phases), Burnett expansion method, x1 = 0.832 | 7.117
424.96 K, 210.5 kPa, Fluid (supercritical or subcritical phases), Burnett expansion method, x1 = 0.832 | 7.8282
424.96 K, 268.07 kPa, Fluid (supercritical or subcritical phases), Burnett expansion method, x1 = 0.832 | 10.034
